# In patent publication US6514967B1 (priority 1997, dated 2003):
# Like-named read-outs stand apart in the source and are kept apart here.
# Experiments:
# [1] = Chemical test of capture of OH• radicals (deoxyribose competition); format: biochemical; conditions: rate constant of reaction of the competitor with OH•, competition with 2-deoxyribose, UV at 532 nm
# Experimental: A) Chemical test of capture of OH^• radicals:
# (Free Rad. Res. Comms., Vol. 14, Nos. 5-6, pp. 363-372)
# […] of buffer (30 mM Na2HPO4.7H2O, 40 mM NaCl, 0.1 mM EDTA), 125 ml of deoxyribose at 2.10^−3 mM and 125 ml of 4-times concentrated solution of radical inhibitor (final concentration from 0 to 0.5 mM) were placed in glass haemolysis tubes cooled on an ice bath. […] of FeSO4 at 10^−3 mM (in water) is added at time 0. After 15 min of incubation the reaction is stopped with 250 ml of trichloroacetic acid at 3%, to which is added 250 ml of solution of thiobarbituric acid at 1.5% (in water). The tubes are kept at 100° C. for 10 min then cooled for detection with UV at 532 nm. The linear relation A0/A=1+ks/dkr [(competitor)/(2-deoxyribose)] was used, where A0 and A denote the absorbances in the absence and in the presence of competitor, ks is the rate constant of reaction of the competitor with OH• and kdr=1.9*10^9 M^−1 sec^−1 is the rate constant of reaction of 2-deoxyribose with OH•. Thus ks is equal to the gradient of the straight line A0/A f((competitor)/(2-deoxyribose)) multiplied by kdr.
# xanthine oxidase = xanthine oxidase (Homo sapiens, UniProt P47989); test: Action of the derivatives on xanthine oxidase; format: biochemical; conditions: for inhibition at 100 µM: read-out: % inhibition 100 μM; for inhibition at 500 µM: read-out: % inhibition 500 μM
# xanthine oxidase, sequence (P47989 whole entry, species assumed): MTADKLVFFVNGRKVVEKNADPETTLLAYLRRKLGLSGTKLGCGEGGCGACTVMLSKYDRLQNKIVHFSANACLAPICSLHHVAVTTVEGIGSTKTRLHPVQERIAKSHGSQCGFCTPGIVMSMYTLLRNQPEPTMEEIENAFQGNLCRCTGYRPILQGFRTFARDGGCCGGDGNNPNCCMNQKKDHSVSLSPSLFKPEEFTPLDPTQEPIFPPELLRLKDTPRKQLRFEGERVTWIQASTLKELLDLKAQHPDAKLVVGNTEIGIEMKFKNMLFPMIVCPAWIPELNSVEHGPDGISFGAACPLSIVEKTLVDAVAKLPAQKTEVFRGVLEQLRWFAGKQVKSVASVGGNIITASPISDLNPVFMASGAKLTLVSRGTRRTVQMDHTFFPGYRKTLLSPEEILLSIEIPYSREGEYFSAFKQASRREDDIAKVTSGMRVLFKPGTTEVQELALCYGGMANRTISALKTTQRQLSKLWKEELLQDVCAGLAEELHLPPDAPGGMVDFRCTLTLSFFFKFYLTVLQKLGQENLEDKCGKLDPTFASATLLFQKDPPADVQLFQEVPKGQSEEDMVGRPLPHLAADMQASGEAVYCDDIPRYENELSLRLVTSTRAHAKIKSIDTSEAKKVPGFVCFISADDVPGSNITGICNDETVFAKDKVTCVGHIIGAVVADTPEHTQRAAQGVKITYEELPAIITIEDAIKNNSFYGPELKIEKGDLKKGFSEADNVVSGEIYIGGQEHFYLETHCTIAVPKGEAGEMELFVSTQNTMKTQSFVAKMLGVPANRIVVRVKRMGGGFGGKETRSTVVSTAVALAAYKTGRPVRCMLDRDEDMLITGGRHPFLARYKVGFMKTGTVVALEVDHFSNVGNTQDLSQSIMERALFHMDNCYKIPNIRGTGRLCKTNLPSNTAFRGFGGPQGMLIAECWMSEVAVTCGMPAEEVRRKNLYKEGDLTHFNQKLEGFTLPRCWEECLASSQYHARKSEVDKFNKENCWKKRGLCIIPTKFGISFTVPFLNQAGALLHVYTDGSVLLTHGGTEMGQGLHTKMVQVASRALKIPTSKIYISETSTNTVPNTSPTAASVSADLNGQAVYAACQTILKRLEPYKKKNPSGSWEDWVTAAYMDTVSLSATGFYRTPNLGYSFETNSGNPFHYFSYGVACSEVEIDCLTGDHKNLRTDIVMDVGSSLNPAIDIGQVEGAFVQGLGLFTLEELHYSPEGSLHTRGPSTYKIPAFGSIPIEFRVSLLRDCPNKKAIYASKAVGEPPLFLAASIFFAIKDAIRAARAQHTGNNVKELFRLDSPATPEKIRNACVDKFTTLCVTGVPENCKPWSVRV
# Experimental: Action of the derivatives on xanthine oxidase:
# (Free Radical Biology & Medicine, Vol 20, No 1, pp.35-43, 1996)
# […] of xanthine 20 mM in soda 0.1N and […] of the test product in phosphate buffer at pH 7.4 were placed in a final volume of 2 ml. Reaction is started by adding […] of solution of xanthine oxidase at 0.56 U/ml. Formation of […] is monitored by UV spectroscopy at 290 nm. Allopurinol is a reference inhibitor.
# astrocytes = test: Recapture of glutamate by cultures of astrocytes, radicals generated by xanthine/xanthine oxidase (X/XO); format: cell-based, rats
# Experimental: B) Procedure with cultures of astrocytes and generation of radicals by the xanthine/xanthine oxidase (X/XO) pair
# 400 μl of D-lysine at 25 μg/ml (9 ml of D-lysine at 100 μg per ml of borate buffer (0.1M pH 8.4)+27 ml of water) is placed in each well of 24-well culture plates. The wells are left in the stove (5% CO2, 37° C.) over night. Each well is rinsed with 2 times 750 μl of Hanks before receiving the culture medium. 3 lateral demi cortices are taken from rats aged 1 to 2 days. (The hippocampus, the striatum and the meninges are removed). The demi cortices are placed in 2 ml of trypsin-EDTA then put in the stove for 30 min. The action of the trypsin is stopped with 10% of decomplemented foetal calf serum (200 μl). The serum and the trypsin are removed then the cells are dissociated with a pipette in 10 ml of medium (MEM 225 ml+FCS-D 25 ml+glucose 20% 7.5 ml) (MEM=minimum essential medium; FCS-D=decomplemented foetal calf serum). The culture medium is made up to 30 ml, stirred and placed at 400 μl per well. The medium is changed twice weekly for 18 days. The last replacement is effected 4 days prior to the treatment, with a medium without decomplemented foetal calf serum. (MEM 31.5 ml+glucose 20% 1.05 ml).
# Treatment takes place on the 18th or 19th day.
# Each well is washed with 750 μl of buffer (NaCl 124 mM, KCl 4.6 mM, CaCl2 1.2 mM, MgCl2 1.3 mM, KH2PO4 0.416 mM, NaHCO3 26.75 mM, glucose 10 mM; pH 7.4) for 10 min. The cells are incubated in the presence of xanthine (500 μM) and of the test product (from 0 to 1 mM). After 10 min, xanthine oxidase is added (50 mU/ml) and it is again left to incubate for 10 min. Release of radicals is stopped by washing 3 times with catalase (3000 U/ml). The glutamate is then recaptured in a solution of radioactive glutamate (^3H) at 40 μM (isotopic dilution 1/20000). Recapture is stopped by washing 3 times with the cold buffer. The cells are detached with soda 0.2N and the radioactivity is measured.
# Firstly we checked that the inhibition of recapture observed in the presence of X/XO is indeed due to a radical process. For this we replaced the test products with two enzymes: SOD (SuperOxide Dismutase) and catalase (FIG. 1). […] The Fenton reaction converting hydrogen peroxide to OH• is thus short-circuited. […] However, as there seems to be sufficient reducing agent in the medium to promote the formation of H2O2 starting from O2^•^−, it appears likely that a substantial proportion of H2O2 gives OH• (a highly reactive radical).
# FIGS. 3 to 8 are the mean of at least 4 independent tests in which the protective power of IC180, IC023, IC241, IC2-16, IC178, IC140, IC209, IC237, IC146, IC193, IC194, IC242, IC207, IC2-19, IC219, IC2-21, and IC249, as a function of the dose, was tested against a fixed concentration of radicals, and therefore of X/XO. In the case of IC180, the increase in recapture appears to be linear (up to 100% is found in some tests). […] Since IC023 alone only becomes “toxic” starting from 1 mM, the variation observed starting from 0.6 mM might reflect the existence of metabolites that are poorly tolerated by the cells. The derivative morpholine IC180 is more interesting.
# [2] = product at 100 μM, UV at 290 nm
# [3] = product at 500 μM, UV at 290 nm
molecule,measurement,setting,value
"Cl.c1cc2c(s1)SCCC2N1CCOCC1 (stereo not drawn) [IC241, morpholine-4 tetrahydro-4,5,6,7-thio-7-benzothiophene]",ks (10^−9M^−1 sec^−1) (±SEM),[1],3.01 ± 0.14 10^−9M^−1 sec^−1
same,inhibition at 100 µM,xanthine oxidase; [2],7%
same,inhibition at 500 µM,xanthine oxidase; [3],-8%
"c1cc2c(s1)CCCC2N1CCCCC1 (stereo not drawn) [IC023, piperidino-4-tetrahydro-4,5,6,7-benzothiophene]",% recapture from which the opposite effect is observed,astrocytes; fixed concentration of X/XO,≥ 15%
same,concentration from which the variation (opposite effect) is observed,astrocytes; in presence of X/XO,≥ 0.6 mM
same,"concentration from which the product alone becomes ""toxic""","astrocytes; product alone, astrocytes",≥ 1000 µM
same,ks (10^−9M^−1 sec^−1) (±SEM),[1],3.61 ± 0.16 10^−9M^−1 sec^−1
same,inhibition at 100 µM,xanthine oxidase,-6%
"O=C(O)c1ccccc1O [ac.salicyl., salicylic acid, reference compound]",ks (10^−9M^−1 sec^−1) (±SEM),[1],3.02 ± 0.18 10^−9M^−1 sec^−1
same,ks (10^−9M^−1 sec^−1) (±SEM),[1]; listed as salicylic acid,3.02±0.18 10^−9M^−1 sec^−1
"Cl.OC1CCN(C2CCCc3sccc32)CC1 (stereo not drawn) [IC209, (4 hydroxy-piperidine)-4-tetrahydro-4,5,6,7-benzothiophene]",ks (10^−9M^−1 sec^−1) (±SEM),[1],3.27 ± 0.50 10^−9M^−1 sec^−1
"Cl.c1cc2c(s1)SCCC2N1CCCCC1 (stereo not drawn) [IC237, piperidino-4-tetrahydro-4,5,6,7-thio-7-benzothiophene]",ks (10^−9M^−1 sec^−1) (±SEM),[1],3.45 ± 0.19 10^−9M^−1 sec^−1
same,inhibition at 100 µM,xanthine oxidase,-9%
same,inhibition at 500 µM,xanthine oxidase,-8%
Cl.c1cc2c(s1)C(N1CCOCC1)CCC2 (stereo not drawn) [IC2-16],ks (10^−9M^−1 sec^−1) (±SEM),[1],3.33 ± 0.15 10^−9M^−1 sec^−1
"Cl.c1cc2c(s1)CCCC2N1CCSCC1 (stereo not drawn) [IC193, thiomorpholine-4-tetrahydro-4,5,6,7-benzothiophene]",ks (10^−9M^−1 sec^−1) (±SEM),[1],3.41 ± 0.25 10^−9M^−1 sec^−1
same,inhibition at 100 µM,xanthine oxidase; [2],-7%
same,inhibition at 500 µM,xanthine oxidase; [3],-2%
"O=C1O[C@H]([C@@H](O)CO)C(O)=C1O [vitamin C, reference compound]",ks (10^−9M^−1 sec^−1) (±SEM),[1],1.87±0.17 10^−9M^−1 sec^−1
"CN1CCN(C2CCCc3sccc32)CC1 (stereo not drawn) [IC194, N-methyl-piperazine-4-tetrahydro-4,5,6,7-benzothiophene]",ks (10^−9M^−1 sec^−1) (±SEM),[1],3.50 ± 0.23 10^−9M^−1 sec^−1
same,inhibition at 100 µM,xanthine oxidase; [2],-15%
same,inhibition at 500 µM,xanthine oxidase; [3],10%
catalase,recapture of glutamate with enzyme in place of test product (in words),"astrocytes; in presence of X/XO, control, FIG. 1",allows a normal degree of recapture to be attained
"Cl.NC1CCCc2ccsc21 (stereo not drawn) [IC178, amino-7-tetrahydro-4,5,6,7-benzothiophene]",ks (10^−9M^−1 sec^−1) (±SEM),[1],2.76 ± 0.06 10^−9M^−1 sec^−1
"CN1CCN(C2CCSc3sccc32)CC1 (stereo not drawn) [IC242, (N-methyl piperazine)-4-tetrahydro-4,5,6,7-thio-7-benzothiophene]",ks (10^−9M^−1 sec^−1) (±SEM),[1],3.00 ± 0.19 10^−9M^−1 sec^−1
"Oc1ncnc2[nH]ncc12 [Allopurinol, reference compound]",inhibition at 100 µM,xanthine oxidase,92%
same,inhibition at 500 µM,xanthine oxidase,90%
"Cl.NC1CCCc2sccc21 (stereo not drawn) [IC088, amino-4-tetrahydro-4,5,6,7-benzothiophene]",ks (10^−9M^−1 sec^−1) (±SEM),[1],3.37 ± 0.25 10^−9M^−1 sec^−1
same,inhibition at 100 µM,xanthine oxidase; [2],-15%
"O=C[C@@H](O)[C@@H](O)[C@H](O)[C@H](O)CO [D-mannose, reference compound]",ks (10^−9M^−1 sec^−1) (±SEM),[1],0.94±0.06 10^−9M^−1 sec^−1
